This note sets out measurements from patent US11685746B2, “Heteroaryl compounds for treating Huntington's disease” (PTC THERAPEUTICS, INC., priority 2018, dated 2023).

One may read the IC50 as the point on the concentration scale where inhibition reaches its midpoint. Low readings indicate inhibition by little substance, high ones a need for much substance.

For the assay, the system named is Endogenous Huntingtin Protein. In words: Endogenous Huntingtin Protein Assay (MSD plates, MW1 or MAB2166 capture antibody). The assay is classed as cell-based. The note with it: Table 1. The method, boiled down:
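Sandwich MSD immunoassay: plates were coated overnight at 4° C with MW1 (expanded polyQ) or MAB2166 capture antibody at 1 μg/mL, then blocked with 5% BSA. Samples were bound overnight at 4° C, followed by rabbit mAb #5656S and SULFO-TAG anti-rabbit detection, each at 0.25 μg/mL for 1 h at room temperature. Signal was read by electrochemiluminescence.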
Take `Cc1ncc(-c2cnc(-c3nc4sc(N(C)C5CCNCC5)nc4s3)c(O)c2)s1` [Compound 222, 2-{5-[methyl(piperidin-4-yl)amino][1,3]thiazolo[5,4-d][1,3]thiazol-2-yl}-5-(2-methyl-1,3-thiazol-5-yl)pyridin-3-ol]: the IC50 was at most 100 nM.
The figure for `CN(c1nc2sc(-c3cc(F)c(-c4cn[nH]c4)cc3F)nc2s1)[C@@H]1C[C@H]2CC[C@@H](C1)N2` [Compound 158, N-[(1R,3s,5S)-8-azabicyclo[3.2.1]octan-3-yl]-5-[2,5-difluoro-4-(1H-pyrazol-4-yl)phenyl]-N-methyl[1,3]thiazolo[5,4-d][1,3]thiazol-2-amine] is at most 100 nM.
Molecule `COc1cc(-c2cnc(-c3nc4sc(N(C)[C@H]5C[C@]6(C)CC[C@](C)(C5)N6)nc4s3)cn2)ccn1` [Compound 69, N-[(1R,3s,5S)-1,5-dimethyl-8-azabicyclo[3.2.1]octan-3-yl]-5-[5-(2-methoxypyridin-4-yl)pyrazin-2-yl]-N-methyl[1,3]thiazolo[5,4-d][1,3]thiazol-2-amine] showed an IC50 of 100 to 500 nM.
Consider `CN(c1nn2cc(-c3ccc(-c4cn[nH]c4)cc3O)nc2s1)C1CC2CCC(C1)N2` (stereo not drawn) [Compound 18, 2-{2-[(3-exo)-8-azabicyclo[3.2.1]oct-3-yl(methyl)amino]imidazo[2,1-b][1,3,4]thiadiazol-6-yl}-5-(1H-pyrazol-4-yl)phenol], for which the IC50 lay in the range of 100 to 500 nM.
The figure for `CN(c1nc2sc(-c3ncc(-c4cn[nH]c4)c4cc[nH]c34)nc2s1)C1CC(C)(C)NC(C)(C)C1` [Compound 159, N-methyl-5-[4-(1H-pyrazol-4-yl)-1H-pyrrolo[2,3-c]pyridin-7-yl]-N-(2,2,6,6-tetramethylpiperidin-4-yl)[1,3]thiazolo[5,4-d][1,3]thiazol-2-amine] is at most 100 nM; for `CN(c1nc2sc(-c3ncc(-c4cn[nH]c4)cn3)nc2s1)C1CC(C)(C)NC(C)(C)C1` [Compound 162, N-methyl-5-[5-(1H-pyrazol-4-yl)pyrimidin-2-yl]-N-(2,2,6,6-tetramethylpiperidin-4-yl)[1,3]thiazolo[5,4-d][1,3]thiazol-2-amine] it is at most 100 nM.
The result for `[2H]C([2H])([2H])n1cc(-c2cnc(-c3nc4sc(N(C)C5CCNCC5)nc4s3)c(O)c2)cn1` [Compound 51, 2-{5-[methyl(piperidin-4-yl)amino][1,3]thiazolo[5,4-d][1,3]thiazol-2-yl}-5-[1-(^2H3)methyl-1H-pyrazol-4-yl]pyridin-3-ol] reads at most 100 nM.
The result for `CN(c1nc2sc(-c3ncc(-c4cn[nH]c4)c4cc[nH]c34)nc2s1)C1CCN2CCCC2C1` (centres unmarked) [Compound 123, N-methyl-N-{5-[4-(1H-pyrazol-4-yl)-1H-pyrrolo[2,3-c]pyridin-7-yl][1,3]thiazolo[5,4-d][1,3]thiazol-2-yl}octahydroindolizin-7-amine] reads at most 100 nM; that for `CN(c1nc2sc(-c3ncc(-c4cn[nH]c4)c4[nH]cnc34)nc2s1)C1CC(C)(C)NC(C)(C)C1` [Compound 136, N-methyl-5-[7-(1H-pyrazol-4-yl)-1H-imidazo[4,5-c]pyridin-4-yl]-N-(2,2,6,6-tetramethylpiperidin-4-yl)[1,3]thiazolo[5,4-d][1,3]thiazol-2-amine], at most 100 nM.
In the case of `CN(c1nc2sc(-n3cnc(-c4cn[nH]c4)cc3=O)nc2s1)[C@H]1C[C@]2(C)CC[C@](C)(C1)N2` [Compound 144, 3-(5-{[(1R,3s,5S)-1,5-dimethyl-8-azabicyclo[3.2.1]octan-3-yl](methyl)amino}[1,3]thiazolo[5,4-d][1,3]thiazol-2-yl)-6-(1H-pyrazol-4-yl)pyrimidin-4(3H)-one], the IC50 is at most 100 nM.
The result for `C[C@H]1C[C@H](N(C)c2nc3sc(-c4ncc(-n5ccnc5)c5cc[nH]c45)nc3s2)CCN1` [Compound 80, 5-[4-(1H-imidazol-1-yl)-1H-pyrrolo[2,3-c]pyridin-7-yl]-N-methyl-H-[(2S,4R)-2-methylpiperidin-4-yl][1,3]thiazolo[5,4-d][1,3]thiazol-2-amine] reads at most 100 nM; that for `Cc1[nH]ncc1-c1cnc(-c2nc3sc(N(C)[C@H]4C[C@]5(C)CC[C@](C)(C4)N5)nc3s2)cn1` [Compound 86, N-[(1R,3s,5S)-1,5-dimethyl-8-azabicyclo[3.2.1]octan-3-yl]-N-methyl-5-[5-(5-methyl-1H-pyrazol-4-yl)pyrazin-2-yl][1,3]thiazolo[5,4-d][1,3]thiazol-2-amine], at most 100 nM; that for `CN(c1nn2cc(-c3ccc(-c4cn[nH]c4)cc3O)nc2s1)C1CC(C)(C)NC(C)(C)C1` [Compound 17, 2-{2-[methyl(2,2,6,6-tetramethylpiperidin-4-yl)amino]imidazo[2,1-b][1,3,4]thiadiazol-6-yl}-5-(1H-pyrazol-4-yl)phenol], 500 to 1000 nM.
Consider `CC1CC(N(C)c2nc3sc(-c4ccc(-n5nccn5)c5cc[nH]c45)nc3s2)CCN1C` (centres unmarked) [Compound 118, N-(1,2-dimethylpiperidin-4-yl)-N-methyl-5-[4-(2H-1,2,3-triazol-2-yl)-1H-indol-7-yl][1,3]thiazolo[5,4-d][1,3]thiazol-2-amine], for which the IC50 was in the range of 500 to 1000 nM.
Molecule `C[C@H]1C[C@H](N(C)c2nc3sc(-c4cnc(-n5ccnc5)cn4)nc3s2)CCN1` [Compound 66, 5-[5-(1H-imidazol-1-yl)pyrazin-2-yl]-N-methyl-N-[(2S,4R)-2-methylpiperidin-4-yl][1,3]thiazolo[5,4-d][1,3]thiazol-2-amine] gave an IC50 of at most 100 nM.
The result for `CN(c1nc2sc(-c3ccc(-c4cn[nH]c4)nc3)nc2s1)[C@@H]1C[C@H]2CC[C@@H](C1)N2` [Compound 173, N-[(1R,3s,5S)-8-azabicyclo[3.2.1]octan-3-yl]-N-methyl-5-[6-(1H-pyrazol-4-yl)pyridin-3-yl][1,3]thiazolo[5,4-d][1,3]thiazol-2-amine] reads at most 100 nM; that for `COc1cc(-c2cn[nH]c2)ccc1-c1nc2sc(N(C)C3CCNCC3)nc2s1` [Compound 200, 5-[2-methoxy-4-(1H-pyrazol-4-yl)phenyl]-N-methyl-N-(piperidin-4-yl)[1,3]thiazolo[5,4-d][1,3]thiazol-2-amine], 1000 to 3000 nM.
Consider `CCN(c1nc2sc(-c3ncc(-c4cn[nH]c4)cc3O)nc2s1)C1CCN(C)CC1` [Compound 218, 2-{5-[ethyl(1-methylpiperidin-4-yl)amino][1,3]thiazolo[5,4-d][1,3]thiazol-2-yl}-5-(1H-pyrazol-4-yl)pyridin-3-ol], for which the IC50 was at most 100 nM.
The result for `CN(c1nc2sc(-c3ccc(-c4cn[nH]c4)cc3O)nc2s1)C1CCNCC1` [Compound 14, 2-{5-[methyl(piperidin-4-yl)amino][1,3]thiazolo[5,4-d][1,3]thiazol-2-yl}-5-(1H-pyrazol-4-yl)phenol] reads at most 100 nM; that for `CN(c1nc2sc(-n3ccccc3=O)nc2s1)[C@@H]1C[C@H]2CC[C@@H](C1)N2` [Compound 187, 1-(5-{[(1R,3s,5S)-8-azabicyclo[3.2.1]octan-3-yl](methyl)amino}[1,3]thiazolo[5,4-d][1,3]thiazol-2-yl)pyridin-2(1H)-one], 100 to 500 nM; that for `CC1CC(N(C)c2nc3sc(-c4ccc(-c5cn[nH]c5)c5nc[nH]c45)nc3s2)CCN1C` (centres unmarked) [Compound 112, N-(1,2-dimethylpiperidin-4-yl)-N-methyl-5-[4-(1H-pyrazol-4-yl)-1H-benzimidazol-7-yl][1,3]thiazolo[5,4-d][1,3]thiazol-2-amine], at most 100 nM.
In the case of `CN(c1nc2sc(-c3cc(F)c(-c4cn[nH]c4)c(F)c3)nc2s1)C1CCNCC1` [Compound 21, 5-[3,5-difluoro-4-(1H-pyrazol-4-yl)phenyl]-N-methyl-N-(piperidin-4-yl)[1,3]thiazolo[5,4-d][1,3]thiazol-2-amine], the half-inhibitory concentration (IC50) lay in the range of 1000 to 3000 nM.
The figure for `C[C@@H]1C[C@@H](Oc2nc3sc(-c4ccc(-c5cn[nH]c5)c5cn[nH]c45)nc3s2)CCN1` [Compound 78, 7-(5-{[(2R,4S)-2-methylpiperidin-4-yl]oxy}[1,3]thiazolo[5,4-d][1,3]thiazol-2-yl)-4-(1H-pyrazol-4-yl)-1H-indazole] is at most 100 nM; for `Oc1cc(-c2cn[nH]c2)ccc1-c1nc2sc(C3CCNCC3)nc2s1` [Compound 208, 2-[5-(piperidin-4-yl)[1,3]thiazolo[5,4-d][1,3]thiazol-2-yl]-5-(1H-pyrazol-4-yl)phenol] it is 1000 to 3000 nM.
The result for “N-methyl-N-[(2S,4R)-2-methylpiperidin-4-yl]-5-[4-(1H-pyrazol-4-yl)-1H-pyrrolo[2,3-c]pyridin-7-yl][1,3]thiazolo[5,4-d][1,3]thiazol-2-amine [Compound 71]” reads 100 to 500 nM; that for `[2H]C([2H])([2H])n1cc(-c2ccc(-c3nc4sc(N(C)C5CCNCC5)nc4s3)c(O)c2)cn1` [Compound 39, 2-{5-[methyl(piperidin-4-yl)amino][1,3]thiazolo[5,4-d][1,3]thiazol-2-yl}-5-[1-(^2H3)methyl-1H-pyrazol-4-yl]phenol], at most 100 nM.
`CN(c1nc2sc(-c3ncc(-c4cn[nH]c4)n4ccnc34)nc2s1)C1CCNCC1` [Compound 101, N-methyl-N-(piperidin-4-yl)-5-[5-(1H-pyrazol-4-yl)imidazo[1,2-a]pyrazin-8-yl][1,3]thiazolo[5,4-d][1,3]thiazol-2-amine] registered an IC50 of 1000 to 3000 nM.
The figure for `CN(c1nc2sc(-n3ccc(-c4cn[nH]c4)cc3=O)nc2s1)[C@@H]1C[C@H]2CC[C@@H](C1)N2C` [Compound 178, 1-(5-{methyl[(1R,3s,5S)-8-methyl-8-azabicyclo[3.2.1]octan-3-yl]amino}[1,3]thiazolo[5,4-d][1,3]thiazol-2-yl)-4-(1H-pyrazol-4-yl)pyridin-2(1H)-one] is at most 100 nM.
Take `Oc1cc(-c2cn[nH]c2)cnc1-c1nc2sc(N3CCC34CCNCC4)nc2s1` [Compound 189, 2-[5-(1,7-diazaspiro[3.5]nonan-1-yl)[1,3]thiazolo[5,4-d][1,3]thiazol-2-yl]-5-(1H-pyrazol-4-yl)pyridin-3-ol]: the half-maximal inhibitory concentration (IC50) was 100 to 500 nM.
